# Test system: influenza virus A/PR/8/34(H1N1)
# Assay: ELISA inhibition of influenza virus binding to immobilised GM3
# Details: 1 nmol GM3 per well, virus suspension 32 HAU, pre-incubated at 4° C. for two hours
smiles,measurement,value
CC(=O)N[C@H]1[C@H]([C@H](O)[C@H](O)CO)O[C@@](O[C@H]2[C@@H](O)[C@@H](CO)O[C@@H](O[C@H]3[C@H](O)[C@@H](O)C(O)O[C@@H]3CO)[C@@H]2O)(C(=O)O)C[C@@H]1O (stereo partly shown) [Sialyl lactose],IC50 per molecule,1.5e-07 mol
